In ChEMBL document CHEMBL4765295, “Synthesis, pharmacological profile and 2D-QSAR studies of curcumin-amino acid conjugates as potential drug candidates” (Eur J Med Chem, 2020):
Values joined by “and” are separate entries in the source; they are usually repeats but may differ in a detail not shown here. Equal entries are not always repeated.

Tested on: Rattus norvegicus
Experiment: Anti-inflammatory activity in Wistar rat assessed as inhibition of carrageenan-induced paw edema at 10 mg/kg, ip pretreated for 1 hr followed by carrageenan challenge and measured after 4 hr relative to control (reference value: 0.00 +/-0.4 %)
Format: functional
Conditions: time 5 hrs

SMILES	inhibition in vivo at 10 mg/kg [%]
COc1cc(/C=C/C(=O)/C=C(O)/C=C/c2ccc(OC(=O)[C@@H](N)CCSC)c(OC)c2)ccc1OC(=O)[C@@H](N)CCSC.Cl.Cl	97

Tested on: Mus musculus
Experiment: Analgesic activity in albino mouse assessed reduction in acetic acid-induced abdominal writhing by measuring writing reflex at 10 mg/kg, ip pretreated for 1 hr followed by acetic acid challenge and measured starting 5 mins post acetic acid challenge for 10 mins (reference value: 42.4 +/- 1.02)
Format: functional
Conditions: time 75 min, 1.25 h

SMILES	Activity
COc1cc(/C=C/C(=O)/C=C(O)/C=C/c2ccc(OC(=O)[C@@H](N)CCSC)c(OC)c2)ccc1OC(=O)[C@@H](N)CCSC.Cl.Cl	27.2

Tested on: Splenocyte
Experiment: Immunomodulatory activity in Swiss albino mouse splenocytes assessed as cell viability at 10 uM by measuring stimulation index incubated for 72 hrs in presence of mitogenic stimulus phytohaemagglutinin by MTT assay (reference value: 1.00 +/- 0.24)
Format: functional
Conditions: not given

SMILES	Activity_index
COc1cc(/C=C/C(=O)/C=C(O)/C=C/c2ccc(OC(=O)[C@@H](N)CCSC)c(OC)c2)ccc1OC(=O)[C@@H](N)CCSC.Cl.Cl	1.49

Tested on: Rattus norvegicus
Experiment: Anti-inflammatory activity in Wistar rat assessed as inhibition of carrageenan-induced paw edema at 10 mg/kg, ip pretreated for 1 hr followed by carrageenan challenge and measured after 24 hr relative to control (reference value: 0.00 +/-0.3 %)
Format: functional
Conditions: time 25 hrs

SMILES	inhibition in vivo at 10 mg/kg [%]
COc1cc(/C=C/C(=O)/C=C(O)/C=C/c2ccc(OC(=O)[C@@H](N)CCSC)c(OC)c2)ccc1OC(=O)[C@@H](N)CCSC.Cl.Cl	36

Tested on: Salmonella typhimurium
Experiment: Antibacterial activity against Salmonella typhimurium ATCC 19430 incubated for 18 hrs by agar dilution assay
Format: functional, Salmonella enterica subsp. enterica serovar Typhimurium
Conditions: Salmonella enterica

MIC	SMILES
0.125 µg/mL and 0.178 µM	COc1cc(/C=C/C(=O)/C=C(O)/C=C/c2ccc(OC(=O)[C@@H](N)CCSC)c(OC)c2)ccc1OC(=O)[C@@H](N)CCSC.Cl.Cl

Tested on: Rattus norvegicus
Experiment: Antiinflammatory activity in Wistar rat model of carrageenan-induced paw edema assessed as reduction in thickness of paw edema at 10 mg/kg, ip pretreated for 1 hr followed by carrageenan challenge and measured after 24 hrs (reference value: 0.83 +/-0.08 mm)
Format: functional
Conditions: time 25 hrs

SMILES	Activity [mm]
COc1cc(/C=C/C(=O)/C=C(O)/C=C/c2ccc(OC(=O)[C@@H](N)CCSC)c(OC)c2)ccc1OC(=O)[C@@H](N)CCSC.Cl.Cl	0.53

Tested on: Rattus norvegicus
Experiment: Anti-inflammatory activity in Wistar rat assessed as inhibition of carrageenan-induced paw edema at 10 mg/kg, ip pretreated for 1 hr followed by carrageenan challenge and measured after 2 hr relative to control (reference value: 0.00 +/-0.03 %)
Format: functional
Conditions: time 3 hrs

SMILES	inhibition in vivo at 10 mg/kg [%]
COc1cc(/C=C/C(=O)/C=C(O)/C=C/c2ccc(OC(=O)[C@@H](N)CCSC)c(OC)c2)ccc1OC(=O)[C@@H](N)CCSC.Cl.Cl	70

Tested on: Mus musculus
Experiment: Analgesic activity in albino mouse assessed protection against acetic acid-induced abdominal writhing at 10 mg/kg, ip pretreated for 1 hr followed by acetic acid challenge and measured starting 5 mins post acetic acid challenge for 10 mins relative to control (reference value: 0 %)
Format: functional
Conditions: time 75 min, 1.25 h

SMILES	Activity [%]
COc1cc(/C=C/C(=O)/C=C(O)/C=C/c2ccc(OC(=O)[C@@H](N)CCSC)c(OC)c2)ccc1OC(=O)[C@@H](N)CCSC.Cl.Cl	35.8

Tested on: Mus musculus
Experiment: Analgesic activity in albino mouse assessed as forepaw licking/jumping latency time at 10 mg/kg, ip measured after 90 mins by hot plate test (reference value: 2.72 +/- 0.01 sec)
Format: functional
Conditions: 1.5 h

SMILES	Time [s]
COc1cc(/C=C/C(=O)/C=C(O)/C=C/c2ccc(OC(=O)[C@@H](N)CCSC)c(OC)c2)ccc1OC(=O)[C@@H](N)CCSC.Cl.Cl	4.98

Tested on: Mus musculus
Experiment: Analgesic activity in albino mouse assessed protection against acetic acid-induced abdominal writhing at 10 mg/kg, ip pretreated for 1 hr followed by acetic acid challenge and measured starting 5 mins post acetic acid challenge for 10 mins relative to indomethacin
Format: functional
Conditions: time 75 min, 1.25 h

SMILES	Activity [%]
COc1cc(/C=C/C(=O)/C=C(O)/C=C/c2ccc(OC(=O)[C@@H](N)CCSC)c(OC)c2)ccc1OC(=O)[C@@H](N)CCSC.Cl.Cl	58.1

Tested on: Mus musculus
Experiment: Analgesic activity in albino mouse assessed as forepaw licking/jumping latency time at 10 mg/kg, ip measured after 30 mins by hot plate test (reference value: 5.02 +/- 0.09 sec)
Format: functional
Conditions: 0.5 h

SMILES	Time [s]
COc1cc(/C=C/C(=O)/C=C(O)/C=C/c2ccc(OC(=O)[C@@H](N)CCSC)c(OC)c2)ccc1OC(=O)[C@@H](N)CCSC.Cl.Cl	5.28

Tested on: Rattus norvegicus
Experiment: Antiinflammatory activity in Wistar rat model of carrageenan-induced paw edema assessed as reduction in thickness of paw edema at 10 mg/kg, ip pretreated for 1 hr followed by carrageenan challenge and measured after 2 hrs (reference value: 2.06 +/-0.09 mm)
Format: functional
Conditions: time 3 hrs

SMILES	Activity [mm]
COc1cc(/C=C/C(=O)/C=C(O)/C=C/c2ccc(OC(=O)[C@@H](N)CCSC)c(OC)c2)ccc1OC(=O)[C@@H](N)CCSC.Cl.Cl	0.62

Tested on: Streptococcus pyogenes
Experiment: Antibacterial activity against Streptococcus pyogenes ATCC 19615 incubated for 18 hrs by agar dilution method
Format: functional
Conditions: not given

MIC	SMILES
0.5 µg/mL and 0.711 µM	COc1cc(/C=C/C(=O)/C=C(O)/C=C/c2ccc(OC(=O)[C@@H](N)CCSC)c(OC)c2)ccc1OC(=O)[C@@H](N)CCSC.Cl.Cl

Tested on: Mus musculus
Experiment: Analgesic activity in albino mouse assessed as protection at 10 mg/kg, ip measured after 90 mins by hot plate test (reference value: 0 %)
Format: functional
Conditions: 1.5 h

SMILES	Activity [%]
COc1cc(/C=C/C(=O)/C=C(O)/C=C/c2ccc(OC(=O)[C@@H](N)CCSC)c(OC)c2)ccc1OC(=O)[C@@H](N)CCSC.Cl.Cl	83.1

Tested on: Staphylococcus aureus
Experiment: Antibacterial activity against Staphylococcus aureus ATCC 25923 incubated for 18 hrs by agar dilution method
Format: functional
Conditions: not given

MIC	SMILES
0.25 µg/mL and 0.355 µM	COc1cc(/C=C/C(=O)/C=C(O)/C=C/c2ccc(OC(=O)[C@@H](N)CCSC)c(OC)c2)ccc1OC(=O)[C@@H](N)CCSC.Cl.Cl

Tested on: MCF7
Experiment: Antiproliferative activity against human MCF7 cells assessed as inhibition of cell growth after 72 hrs by MTT assay
Format: functional, cell-based
Conditions: MCF7, 72 h

IC50 [µM]	SMILES
11.3	COc1cc(/C=C/C(=O)/C=C(O)/C=C/c2ccc(OC(=O)[C@@H](N)CCSC)c(OC)c2)ccc1OC(=O)[C@@H](N)CCSC.Cl.Cl

Tested on: A549
Experiment: Antiproliferative activity against human A549 cells assessed as inhibition of cell growth after 72 hrs by MTT assay
Format: functional, cell-based
Conditions: A549, 72 h

IC50 [µM]	SMILES
32.8	COc1cc(/C=C/C(=O)/C=C(O)/C=C/c2ccc(OC(=O)[C@@H](N)CCSC)c(OC)c2)ccc1OC(=O)[C@@H](N)CCSC.Cl.Cl

Tested on: not listed separately
Experiment: Ulcerogenic activity in fasted albino mouse assessed as average severity of ulcers in gastric mucosa at 10 mg/kg, po for 3 days (reference value: 0)
Format: toxicity, organism-based
Conditions: in vivo, 72 h, time 3 day

SMILES	Activity
COc1cc(/C=C/C(=O)/C=C(O)/C=C/c2ccc(OC(=O)[C@@H](N)CCSC)c(OC)c2)ccc1OC(=O)[C@@H](N)CCSC.Cl.Cl	0

Tested on: Rattus norvegicus
Experiment: Antiinflammatory activity in Wistar rat model of carrageenan-induced paw edema assessed as reduction in thickness of paw edema at 10 mg/kg, ip pretreated for 1 hr followed by carrageenan challenge and measured after 4 hrs (reference value: 1.40 +/-0.10 mm)
Format: functional
Conditions: time 5 hrs

SMILES	Activity [mm]
COc1cc(/C=C/C(=O)/C=C(O)/C=C/c2ccc(OC(=O)[C@@H](N)CCSC)c(OC)c2)ccc1OC(=O)[C@@H](N)CCSC.Cl.Cl	0.04

Tested on: PC-3
Experiment: Antiproliferative activity against human PC3 cells assessed as inhibition of cell growth after 72 hrs by MTT assay
Format: functional, cell-based
Conditions: PC-3, 72 h

IC50 [µM]	SMILES
42.6	COc1cc(/C=C/C(=O)/C=C(O)/C=C/c2ccc(OC(=O)[C@@H](N)CCSC)c(OC)c2)ccc1OC(=O)[C@@H](N)CCSC.Cl.Cl
